According to patent publication US12139487B2, “Compounds and uses thereof” (Foghorn Therapeutics Inc., priority 2022, dated 2024):

Legend:
[1] = target: T1, BRG-1 (Homo sapiens, UniProt P51532); test: ATPase catalytic activity assay (ADP-Glo), BRG-1; type: biochemical; conditions: Table 10, read-out: BRG1 IC50
T1 construct: made in house; host or cells: High Five insect cells
Experimental: (§1) The ATPase catalytic activity of BRM or BRG-1 was measured by an in vitro biochemical assay using ADP-Glo™ (Promega, V9102). The ADP-Glo™ kinase assay is performed in two steps once the reaction is complete. The first step is to deplete any unconsumed ATP in the reaction. The second step is to convert the reaction product ADP to ATP, which will be utilized by the luciferase to generate luminesce and be detected by a luminescence reader, such as Envision.
Then, following addition of 5 μL of ADP-Glo™ Reagent provided in the kit, the reaction incubates at room temperature for 40 minutes. Then, 10 μL of Kinase Detection Reagent provided in the kit is added to convert ADP to ATP, and the reaction incubates at room temperature for 60 minutes. Finally, luminescence measurement is collected with a plate-reading luminometer, such as Envision.

[2] = target: T2, BRM (Homo sapiens, UniProt P51531); test: ATPase catalytic activity assay (ADP-Glo), BRM; type: biochemical; conditions: Table 10; for Ratio (BRG1 IC50 (μM) divided by BRM IC50 (μM)): ATPase assay, selectivity BRG1/BRM; for IC50: ATPase catalytic activity assay (ADP-Glo)
T2 construct: made in house; host or cells: High Five insect cells
T2 sequence (P51531 whole entry): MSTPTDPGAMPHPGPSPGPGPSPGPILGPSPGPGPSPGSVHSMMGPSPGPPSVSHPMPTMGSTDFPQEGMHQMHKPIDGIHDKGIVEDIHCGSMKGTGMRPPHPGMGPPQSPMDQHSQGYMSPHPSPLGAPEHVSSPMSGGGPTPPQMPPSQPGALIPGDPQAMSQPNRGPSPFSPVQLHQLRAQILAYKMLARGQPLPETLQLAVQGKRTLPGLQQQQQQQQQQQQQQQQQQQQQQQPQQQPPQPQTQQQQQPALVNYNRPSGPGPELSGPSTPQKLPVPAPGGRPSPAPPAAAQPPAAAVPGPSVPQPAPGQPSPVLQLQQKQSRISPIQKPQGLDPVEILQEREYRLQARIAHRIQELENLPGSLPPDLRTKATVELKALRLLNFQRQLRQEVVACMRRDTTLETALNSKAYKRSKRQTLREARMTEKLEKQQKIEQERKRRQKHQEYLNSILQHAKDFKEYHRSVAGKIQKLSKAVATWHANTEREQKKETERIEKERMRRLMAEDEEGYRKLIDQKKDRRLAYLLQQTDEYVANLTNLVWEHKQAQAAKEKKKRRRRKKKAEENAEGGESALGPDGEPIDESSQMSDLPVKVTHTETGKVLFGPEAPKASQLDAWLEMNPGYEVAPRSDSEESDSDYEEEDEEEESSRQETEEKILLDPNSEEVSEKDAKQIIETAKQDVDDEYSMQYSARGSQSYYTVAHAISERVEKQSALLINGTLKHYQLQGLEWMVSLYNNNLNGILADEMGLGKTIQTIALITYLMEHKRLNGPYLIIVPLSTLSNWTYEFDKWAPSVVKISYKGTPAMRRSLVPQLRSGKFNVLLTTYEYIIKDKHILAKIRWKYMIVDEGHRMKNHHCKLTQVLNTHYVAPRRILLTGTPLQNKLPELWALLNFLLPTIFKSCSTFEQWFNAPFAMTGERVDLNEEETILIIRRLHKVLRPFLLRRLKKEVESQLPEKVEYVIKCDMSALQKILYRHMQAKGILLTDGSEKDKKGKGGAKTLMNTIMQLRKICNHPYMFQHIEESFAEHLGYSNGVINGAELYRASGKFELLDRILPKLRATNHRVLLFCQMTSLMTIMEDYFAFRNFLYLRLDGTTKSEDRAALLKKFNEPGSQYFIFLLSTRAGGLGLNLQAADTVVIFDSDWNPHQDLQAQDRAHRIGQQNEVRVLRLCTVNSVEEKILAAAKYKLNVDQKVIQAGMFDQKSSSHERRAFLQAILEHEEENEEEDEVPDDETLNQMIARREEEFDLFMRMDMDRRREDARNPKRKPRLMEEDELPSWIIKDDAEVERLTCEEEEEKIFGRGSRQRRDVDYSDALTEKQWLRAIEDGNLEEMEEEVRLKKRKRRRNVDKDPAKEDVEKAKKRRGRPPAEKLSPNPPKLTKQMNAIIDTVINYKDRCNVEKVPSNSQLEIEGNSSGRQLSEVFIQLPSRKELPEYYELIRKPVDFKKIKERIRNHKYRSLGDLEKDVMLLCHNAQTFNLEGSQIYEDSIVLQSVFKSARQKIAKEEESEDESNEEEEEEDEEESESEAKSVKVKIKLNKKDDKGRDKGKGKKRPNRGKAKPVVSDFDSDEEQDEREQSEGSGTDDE
Experimental: as §1
The assay reaction mixture […] contains 30 nM of BRM or BRG-1, 20 nM salmon sperm DNA (from Invitrogen, UltraPure™ Salmon Sperm DNA Solution, cat #15632011), and 400 μM of ATP in the ATPase assay buffer, which comprises of 20 mM Tris, pH 8, 20 mM MgCl2, 50 mM NaCl, 0.1% Tween-20, and 1 mM fresh DTT (Pierce™ DTT (Dithiothreitol), cat #20290). The reaction is initiated by the addition of the 2.5 μL ATPase solution to 2.5 μL ATP/DNA solution on low volume white Proxiplate-384 plus plate (PerkinElmer, cat #6008280) and incubates at room temperature for 1 hour. Then, following addition of 5 μL of ADP-Glo™ Reagent provided in the kit, the reaction incubates at room temperature for 40 minutes. Then, 10 μL of Kinase Detection Reagent provided in the kit is added to convert ADP to ATP, and the reaction incubates at room temperature for 60 minutes. Finally, luminescence measurement is collected with a plate-reading luminometer, such as Envision.

T1 sequence (P51532 whole entry): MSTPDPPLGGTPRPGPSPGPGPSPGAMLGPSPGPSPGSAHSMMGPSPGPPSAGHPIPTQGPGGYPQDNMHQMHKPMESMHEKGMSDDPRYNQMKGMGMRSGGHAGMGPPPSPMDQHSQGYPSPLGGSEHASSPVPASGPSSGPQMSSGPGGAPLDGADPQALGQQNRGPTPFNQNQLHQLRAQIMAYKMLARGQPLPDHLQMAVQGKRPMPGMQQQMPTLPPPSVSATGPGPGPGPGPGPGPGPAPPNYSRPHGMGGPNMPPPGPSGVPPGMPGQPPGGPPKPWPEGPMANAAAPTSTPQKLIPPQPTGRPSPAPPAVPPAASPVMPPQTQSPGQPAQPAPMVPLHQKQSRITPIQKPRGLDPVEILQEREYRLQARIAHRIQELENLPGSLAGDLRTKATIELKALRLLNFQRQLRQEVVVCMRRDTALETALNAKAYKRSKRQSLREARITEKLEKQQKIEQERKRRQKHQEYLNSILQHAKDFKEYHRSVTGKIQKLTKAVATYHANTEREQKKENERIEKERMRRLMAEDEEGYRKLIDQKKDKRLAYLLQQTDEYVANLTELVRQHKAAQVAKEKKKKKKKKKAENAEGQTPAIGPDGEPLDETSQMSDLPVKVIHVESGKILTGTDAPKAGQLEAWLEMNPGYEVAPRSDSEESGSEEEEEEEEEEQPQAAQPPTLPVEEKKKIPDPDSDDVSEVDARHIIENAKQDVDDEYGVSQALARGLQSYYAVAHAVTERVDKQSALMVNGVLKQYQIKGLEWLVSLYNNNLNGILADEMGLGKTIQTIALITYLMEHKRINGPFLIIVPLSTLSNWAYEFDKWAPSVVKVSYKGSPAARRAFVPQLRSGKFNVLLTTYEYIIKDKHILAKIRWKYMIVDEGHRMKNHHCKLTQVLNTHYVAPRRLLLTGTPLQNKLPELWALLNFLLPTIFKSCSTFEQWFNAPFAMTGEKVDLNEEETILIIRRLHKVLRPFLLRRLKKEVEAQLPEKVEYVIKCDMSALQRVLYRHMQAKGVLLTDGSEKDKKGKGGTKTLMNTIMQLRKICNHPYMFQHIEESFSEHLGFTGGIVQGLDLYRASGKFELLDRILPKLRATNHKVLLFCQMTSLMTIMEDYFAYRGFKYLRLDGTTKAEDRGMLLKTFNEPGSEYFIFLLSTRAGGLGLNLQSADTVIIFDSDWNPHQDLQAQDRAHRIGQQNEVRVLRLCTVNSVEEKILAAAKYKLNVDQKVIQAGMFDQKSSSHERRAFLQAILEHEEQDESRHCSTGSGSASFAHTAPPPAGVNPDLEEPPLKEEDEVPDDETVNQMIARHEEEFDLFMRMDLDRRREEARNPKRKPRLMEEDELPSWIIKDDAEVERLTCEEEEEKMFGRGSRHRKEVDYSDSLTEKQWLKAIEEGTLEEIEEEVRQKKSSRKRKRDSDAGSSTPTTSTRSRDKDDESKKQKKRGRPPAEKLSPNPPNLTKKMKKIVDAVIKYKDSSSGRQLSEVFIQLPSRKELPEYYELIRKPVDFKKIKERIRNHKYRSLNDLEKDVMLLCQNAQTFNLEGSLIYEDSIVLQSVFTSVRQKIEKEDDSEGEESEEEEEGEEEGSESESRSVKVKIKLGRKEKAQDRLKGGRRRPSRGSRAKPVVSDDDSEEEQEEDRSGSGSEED

SMILES | IC50 [1] | Ratio (BRG1 IC50 (μM) divided by BRM IC50 (μM)) [2] | IC50 [2]
CCN(CC)c1cnc2c(c1)OCCN2c1ccc2cnc(CNC(=O)c3cc(F)c4c(c3)S(=O)(=O)[C@@H](F)COC4)cc2n1 [Compound 17] | 23.4 nM | 12.76 | 1.5 nM
C[C@H]1C[C@@H]1c1ccc2c(n1)N(c1ccc3cnc(CNC(=O)c4cc(F)c5c(c4)S(=O)(=O)[C@@H](F)CCO5)cc3n1)CCO2 [Compound 20] | 44.7 nM | 26.66 | 1.6 nM
Cc1cc(C(=O)NCc2cc3nc(-c4cccc(N5C[C@@H](C)O[C@@H](C)C5)n4)ccc3cn2)cc2c1COC[C@H](F)S2(=O)=O [Compound 21] | 28.3 nM | 16.50 | 1.6 nM
C[C@@H]1CN(c2cccc(-c3ccc4cnc(CNC(=O)c5ccc6c(c5)S(=O)(=O)[C@@H](F)CCO6)cc4n3)n2)C[C@H](C)O1 [Compound 22] | 16.2 nM | 9.93 | 1.6 nM
CO[C@H](C)COc1ccc2c(c1)N(c1ccc3cnc(CNC(=O)c4cc(F)c5c(c4)S(=O)(=O)[C@@H](F)CCO5)cc3n1)CCO2 [Compound 24] | 31.1 nM | 18.65 | 1.7 nM
O=C(NCc1cc2nc(N3CCOc4cc(C5(C(F)F)CC5)cnc43)ccc2cn1)c1cc(F)c2c(c1)S(=O)(=O)[C@@H](F)COC2 [Compound 25] | 43.9 nM | 21.51 | 1.7 nM
O=C(NCc1cc2nc(N3CCOc4ccc([C@H]5C[C@@H]5C(F)F)nc43)ccc2cn1)c1cc(F)c2c(c1)S(=O)(=O)[C@@H](F)COC2 [Compound 26] | 39.1 nM | 21.77 | 1.7 nM
CCOc1nc(C(F)F)ccc1-c1ccc2cnc(CNC(=O)c3cc(F)c4c(c3)S(=O)(=O)[C@@H](F)COC4)cc2n1 [Compound 29] | 35 nM | 22.36 | 1.8 nM
O=C(NCc1cc2nc(N3CCOc4cc(N5CC(F)C5)cnc43)ccc2cn1)c1cc(F)c2c(c1)S(=O)(=O)[C@@H](F)COC2 [Compound 30] | 39.1 nM | 19.40 | 1.8 nM
O=C(NCc1cc2nc(N3CCOc4cc(C(F)F)cnc43)ccc2cn1)c1cc(F)c2c(c1)S(=O)(=O)[C@@H](F)COC2 [Compound 32] | 36.7 nM | 18.96 | 1.9 nM
CN(C)c1cnc2c(c1)OCCN2c1ccc2cnc(CNC(=O)c3cc(F)c4c(c3)S(=O)(=O)[C@@H](F)COC4)cc2n1 [Compound 33] | 18.9 nM | 11.17 | 1.9 nM
COCCOc1ccc2c(c1)N(c1ccc3cnc(CNC(=O)c4cc(F)c5c(c4)S(=O)(=O)[C@@H](F)CCO5)cc3n1)CCO2 [Compound 35] | 23.3 nM | 13.74 | 1.9 nM
C[C@@H]1C[C@H]1c1ccc2c(n1)N(c1ccc3cnc(CNC(=O)c4cc(F)c5c(c4)S(=O)(=O)[C@@H](F)COC5)cc3n1)CCO2 [Compound 41] | 46.4 nM | 20.00 | 2 nM
O=C(NCc1cc2nc(-c3cccc(OC(F)F)n3)ccc2cn1)c1ccc2c(c1)S(=O)(=O)[C@@H](F)CCOC2 [Compound 42] | 27 nM | 13.35 | 2 nM
COc1nc([C@](C)(F)C(F)F)ccc1-c1ccc2cnc(CNC(=O)c3ccc4c(c3)S(=O)(=O)[C@@H](F)CCOC4)cc2n1 [Compound 43] | 40.6 nM | – | 2 nM
COc1nc([C@H](F)CF)ccc1-c1ccc2cnc(CNC(=O)c3cc(F)c4c(c3)S(=O)(=O)[C@@H](F)COC4)cc2n1 [Compound 44] | 64.1 nM | 23.96 | 2.1 nM
CO[C@H]1C[C@H]1c1cnc2c(c1)OCCN2c1ccc2cnc(CNC(=O)c3cc(F)c4c(c3)S(=O)(=O)[C@@H](F)CCO4)cc2n1 [Compound 45] | 25.8 nM | 12.59 | 2.1 nM

Further compounds by falling IC50 [1], results first:

IC50 [1] | Ratio (BRG1 IC50 (μM) divided by BRM IC50 (μM)) [2] | IC50 [2] | SMILES
1470 nM | 12.17 | 120 nM | C[C@@H]1CN(c2cccc(-c3ccc4cnc(CNC(=O)c5cc(F)c6c(c5)S(=O)(=O)[C@H](F)C[C@H](C)O6)cc4n3)n2)C[C@H](C)O1 [Compound 34, (2S,4S)—N-((2-(6-((2S,6R)-2,6-dimethylmorpholino)pyridin-2-yl)-1,6-naphthyridin-7-yl)methyl)-4,9-difluoro-2-methyl-3,4-dihydro-2H-benzo[b][1,4]oxathiepine-7-carboxamide 5,5-dioxide]
42.2 nM | 22.66 | 1.8 nM | Cc1cc(C(=O)NCc2cc3nc(N4CCOc5cc(N6CC[C@H]6C)cnc54)ccc3cn2)cc2c1COC[C@H](F)S2(=O)=O [Compound 28]
38.5 nM | 16.70 | 2 nM | O=C(NCc1cc2nc(N3CCOc4cc(C5CC5)cnc43)ccc2cn1)c1cc(F)c2c(c1)S(=O)(=O)[C@@H](F)CCO2 [Compound 40]
37.9 nM | – | 1.6 nM | [2H]C1([2H])OC([2H])([2H])[C@H](F)S(=O)(=O)c2cc(C(=O)NCc3cc4nc(-c5ccc(C(F)F)nc5OC)ccc4cn3)cc(F)c21 [Compound 23]
33.9 nM | 16.77 | 2 nM | O=C(NCc1cc2nc(N3CCOc4cc(C5CC5)cnc43)ccc2cn1)c1ccc2c(c1)S(=O)(=O)[C@@H](F)CCO2 [Compound 38]
33 nM | 18.05 | 1.8 nM | O=C(NCc1cc2nc(N3CCOc4cc(N5CC[C@H]5CF)cnc43)ccc2cn1)c1cc(F)c2c(c1)S(=O)(=O)[C@@H](F)CCO2 [Compound 31]
31.9 nM | 15.93 | 2 nM | CC#Cc1ccc2c(n1)N(c1ccc3cnc(CNC(=O)c4cc(F)c5c(c4)S(=O)(=O)[C@@H](F)CCO5)cc3n1)CCO2 [Compound 37]
24.6 nM | 13.44 | 2 nM | O=C(NCc1cc2nc(N3CCOc4ccc(C5CC5)nc43)ccc2cn1)c1ccc2c(c1)S(=O)(=O)[C@@H](F)COC2 [Compound 39]
24 nM | 15.43 | 1.5 nM | O=C(NCc1cc2nc(N3CCCc4c(OC5CC5)ccnc43)ccc2cn1)c1cc(F)c2c(c1)S(=O)(=O)[C@@H](F)CCO2 [Compound 18]
20.7 nM | 13.20 | 1.6 nM | C[C@@H]1CN(c2cncc(-c3ccc4cnc(CNC(=O)c5cc(F)c6c(c5)S(=O)(=O)[C@@H](F)CCO6)cc4c3)n2)C[C@H](C)O1 [Compound 19, (4R)—N-[[6-[6-[(2S,6R)-2,6-dimethylmorpholin-4-yl]pyrazin-2-yl]-3-isoquinolyl]methyl]-4,9-difluoro-5,5-dioxo-3,4-dihydro-2H-1,5λ6-benzoxathiepine-7-carboxamide]
19.5 nM | 11.52 | 1.8 nM | CCOc1ccnc2c1OCCN2c1ccc2cnc(CNC(=O)c3cc(Cl)c4c(c3)S(=O)(=O)[C@@H](F)COC4)cc2n1 [Compound 27]
